Assay results reported in US5688773A, “Method of selectively destroying neoplastic cells” (priority 1994, dated 1997).
Read-outs that look alike come from different tables or passages of the source.

Experiments:
C6 cells [1] = assay: Conditioned medium from co-cultures added to naive C6 cells; format: cell-based, rat; conditions: CM from co-cultures with 0, 10, or 50% P450 2B1 cells after four-day CPA
Experimental: Co-culture assay: Co-cultures of C6-P450 and C6 cells were incubated in triplicate at different ratios (where 0, 10, 50, 90, and 100% of the cells were C6-P450 cells) to achieve a total number of 2×10^6 cells/10 cm dish. After 24 hours, 0.5 mM CPA was added and four days later, cells were counted as previously described. To compare the killing achieved by cell contact with that obtained by exposure to conditioned medium, the supernatant from each co-culture was harvested, filtered through 0.45 μm membrane filters, mixed in a 1:1 ratio with 5 mL of fresh medium and added to overnight cultures of C6 cells (2×10^6 cells/10 cm dish in triplicate). Four days later, C6 cells were washed, harvested and counted. To determine the specificity of the cell-mediated killing effect from the co-culture assays, C6 cells were incubated overnight with C6 cells that expressed the neomycin phosphotransferase gene (C6-Neo), with irradiated C6 cells, with irradiated C6-Neo, and with irradiated C6-P450 cells. γ-irradiation was performed by exposing cells to a total of 6000 rads emitted by a ^51 chromium source.

[2] = tested on: R450-2 (ΨCRE-derived clone, cytochrome P450 2B1); assay: Growth in the presence of 500 μM cyclophosphamide; conditions: 500 μM CPA, four days
C6 cells [3] = assay: Cyclophosphamide dose-response assay; format: cell-based; conditions: Rattus norvegicus, up to 1 mM CPA, read-out: cells that survived incubation
Experimental: Two days later CPA was added to final concentrations of 0-100 μM. Five days after plating, the monolayers were rinsed twice with Hank's buffered saline (GIBCO) to remove dead cells. Monolayers were dispersed using trypsin-EDTA (GIBCO), and cell numbers were determined using a Coulter counter (Coulter Electronics Inc.).

[4] = tested on: C6 cells co-cultured with C6-P450 cells across a filter; assay: Secretory effect assay (insert system); format: cell-based; conditions: Rattus norvegicus
Experimental: Secretory effect assay: To assess the effect of conditioned medium, cells were co-cultured in dishes using the "insert" system (Falcon). This consists of tissue culture dishes (diameter=3.5 cm), which contain a micropore membrane (pore diameter=0.45 μm) that physically separates cell populations plated into the upper and lower chambers but permits the exchange of components in the medium. C6 cells (3.4×10^5 cells) were plated into the bottom chamber, while C6-P450 (3.4×10^5 cells) or C6-Neo cells (3.4×10^5 cells) were plated into the upper chamber (on top of the filter) in a total volume of 5 mL of medium. After an overnight incubation, 0.5 mM CPA was added to this medium. Four days later, the membrane on which the C6-P450 or C6-Neo cells were growing was removed and then the number of C6 glioma cells in the lower chamber was determined by counting with a Coulter apparatus. Surviving C6 cells were then replated at a density of 2×10^5 cells per 10 cm dish without CPA. Nine days later, these cells were trypsinized and counted using the Coulter apparatus.

[5] = tested on: C6 glioma cells and other cells infected with this retrovirus; conditions: cell culture; cited from earlier work
C6BAG cells = assay: Ganciclovir sensitivity, cell proliferation assay; format: cell-based, rat; conditions: even at 1000 nM ganciclovir
Experimental: (§1) Ganciclovir Sensitivity Assays in Culture: To measure the sensitivity of isolated cells, cells were plated in 24-well plates at a density of 10^4 cells per well. The next day, medium was replaced with medium containing ganciclovir (Cytovene, Burroughs Wellcome) at varying concentrations (0-1 μM) in quadruplicate. Four days later, cells were harvested using trypsin and counted using a cell counter (Coulter Electronics Ltd., Luton, United Kingdom). Cell growth is expressed as the percentage of cells compared to the number of cells without treatment (100%).

[6] = tested on: C6BU1 (HSV-TK negative) cells; assay: Ganciclovir sensitivity, cell proliferation assay; format: cell-based, rat; conditions: even at 1000 nM ganciclovir
Experimental: as §1

C6BWT cells = assay: Ganciclovir sensitivity, cell proliferation assay; format: cell-based, rat; conditions: even at 1000 nM ganciclovir
Experimental: as §1

C6BAGWT cells = assay: Ganciclovir sensitivity, cell proliferation assay; format: cell-based, rat; conditions: even at 1000 nM ganciclovir
Experimental: as §1

C6BBAG cells = assay: Ganciclovir sensitivity, cell proliferation assay; format: cell-based, rat; conditions: even at 1000 nM ganciclovir
Experimental: as §1

C6VIK cells [7] = assay: Ganciclovir sensitivity, cell proliferation assay; format: cell-based; conditions: Rattus norvegicus, 96 h; four-day period; read-out: Fifty percent inhibition of growth
Experimental: as §1

C6VIK cells [8] = conditions: subcutaneous, nude mice; cited from earlier work
C6BAG and C6VIK cells = assay: Ganciclovir treatment of combined subcutaneous tumors; format: in vivo, nude mice; conditions: 14 day course, 25 mg/kg twice a day intraperitoneally
Experimental: Sequential injections of 10^5 C6BAG cells followed immediately by 10^6 C6BU1 cells, C6VIK cells, or C6VIKWT cells at the same injection site, were carried out as above using 20 animals for each combination. After the tumors had reached 1 cm in diameter, ganciclovir treatment was begun for 14 days, 25 mg/kg twice a day intraperitoneally in half of each group, with the other half receiving PBS intraperitoneally as a control. Tumor volume was assessed as the percentage increase over the volume at the beginning of treatment through 17 days.

C6VIKWT cells = conditions: colony survival; drug from day 7 for 9-12 days
Experimental: To measure the ganciclovir sensitivity of colony formation, cells were plated in duplicate at a density of 500 cells per 25 cm^2 culture flask. Seven days later, ganciclovir was added at various concentrations (0, 0.1, 0.5, 1, 10, 50, 100, 300 μM) in quadruplicate and incubation was for 9-12 days, with medium changes every 3-5 days. Cells were then fixed with 100% methanol, and stained with Giemsa (Freshney, R. I., "Culture of Animal Cells," in: A Manual of Basic Techniques, 2d ed., New York, Alan R. Liss, Inc., pp. 170-171 (1987)), and colonies ≥2 mm in diameter were counted.

[9] = tested on: C6BAG cells co-cultured with C6VIKWT cells; assay: Delayed co-culture, ganciclovir sensitivity of recipient colonies; format: cell-based, rat
Experimental: Donor C6VIK or C6VIKWT cells were then added to the cultures at a ratio of 1:2 (5×10^4 recipient cells: 10^5 donor cells). Control cultures consisted of C6BAG or C6BBAG cells alone, or C6BA6 or C6BBAG cells co-plated with "donor" C6BU1 or C6BWT cells, after delay, as above. After 10 days, ganciclovir was added at varying concentrations (0-300 μM) and cells were incubated for another 9-12 days with the drug. Cells were then fixed with 0.5% glutaraldehyde and stained histochemically for beta-galactosidase activity, as described (Price et al., Proc. Natl. Acad. Sci. USA 84:1141-1145 (1987)), and colonies were counted.

parental C6 cells = conditions: subcutaneous, nude mice; cited from earlier work

SMILES | Inhibition of proliferation of C6 cells (C6 cells [1]) | Cell destruction [2] | viability at 1000 µM (C6 cells [3]) [%] | inhibition at 500 µM ([4]; C6, 96 h, 0.5 mM CPA, 1:1 ratio, four days, read-out: decrease in the number of C6 cells) [%] | inhibition at 500 µM ([4]; C6, 216 h, replated without CPA, nine days, read-out: decrease in C6 cell number after trypsinization and replating) [%] | fold lower ganciclovir concentration killing infected vs uninfected cells [5] [fold] | Inhibition of growth (C6BAG cells) | Inhibition of growth [6] | Inhibition of growth (C6BWT cells) | Inhibition of growth (C6BAGWT cells) | Inhibition of growth (C6BBAG cells) | IC50 (C6VIK cells [7]) [µM] | Tumor growth (C6VIK cells [8]) | Tumor volume compared to C6BAG and C6BU1 tumors (C6BAG and C6VIK cells) | fold more sensitive than parental line C6VIK at 50% surviving colonies (C6VIKWT cells) [fold] | IC50 ([9]; Rattus norvegicus, ratio 1:2, read-out: ganciclovir concentration at which 50% of cells grew) [µM] | Survival of beta-galactosidase-positive recipient colonies ([9]; ratio 1:2) | Tumor growth (parental C6 cells)
O=P1(N(CCCl)CCCl)NCCCO1 (stereo not drawn) [cyclophosphamide] | no inhibition | destroyed completely | ≥ 80 | ~50 | ~90 | – | – | – | – | – | – | – | – | – | – | – | – | –
Nc1nc(O)c2ncn(COC(CO)CO)c2n1 [ganciclovir] | – | – | – | – | – | 100 | No substantial inhibition of growth | No substantial inhibition of growth | No substantial inhibition of growth | No substantial inhibition of growth | No substantial inhibition of growth | 0.01 | inhibited tumor growth | significant decrease in the tumor volume | 300 | 3 | almost complete ablation of the recipient cells | had no effect on tumor growth
